{"source": "patent US9486506B2", "about": "(Novo Nordisk A/S, priority 2011, dated 2016)", "molecular_target": "T1, glucagon receptor (Homo sapiens, UniProt P47871)", "T1 construct": "expressed in transfected cells", "T1 sequence (P47871 26-477)": "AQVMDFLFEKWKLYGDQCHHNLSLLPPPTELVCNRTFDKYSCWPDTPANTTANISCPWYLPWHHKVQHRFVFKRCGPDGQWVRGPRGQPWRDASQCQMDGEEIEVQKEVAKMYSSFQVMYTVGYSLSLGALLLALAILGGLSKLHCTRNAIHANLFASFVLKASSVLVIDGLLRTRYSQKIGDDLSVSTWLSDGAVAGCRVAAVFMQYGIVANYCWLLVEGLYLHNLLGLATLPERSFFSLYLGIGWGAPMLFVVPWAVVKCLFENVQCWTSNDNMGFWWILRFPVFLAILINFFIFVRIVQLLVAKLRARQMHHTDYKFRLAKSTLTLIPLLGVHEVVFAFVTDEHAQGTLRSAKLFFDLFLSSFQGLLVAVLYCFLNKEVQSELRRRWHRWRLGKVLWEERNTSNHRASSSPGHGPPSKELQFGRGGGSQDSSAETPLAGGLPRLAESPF", "assay": "Assay (I) Glucagon activity (cAMP biosensor, FLIPR)", "assay_type": "cell-based", "method": "The cells (14000 per well) were incubated (37° C., 5% CO2) overnight in 384-well plates. Next day the cells were loaded with a calcium responsive dye that only distributed into the cytoplasm. Probenecid, an inhibitor of the organic anion transporter, was added to prevent the dye from leaving the cell. A PDE inhibitor was added to prevent formatted cAMP from being degraded. The plates were placed into a […] and the glucagon analogues were added. End point data were collected after 6 minutes. An increase in intracellular cAMP was proportional to an increased in calcium concentrations in the cytoplasm. When calcium was bound the dry a fluorescence signal was generated. EC50-values were calculated in Prism5.", "note": "Numbered stars: 1 amine (or outer) side, 2 acyl side, 3 side chain; on linkers, the order of the positions; unused ones are H or OH. Side chains are listed from the residue outwards. Peptide text beside a SMILES is read from it. * marks the point of attachment. C18 diacid = O=C(O)CCCCCCCCCCCCCCCCC(=O)*; C16 diacid = O=C(O)CCCCCCCCCCCCCCC(=O)*; γGlu = O=C(O)[C@H](CCC(=O)[*:2])N[*:1]; AEEA = NCCOCCOCC(=O)O", "data": [{"smiles": "CC(C)C[C@H](NC(=O)[C@H](Cc1c[nH]c2ccccc12)NC(=O)[C@H](CCCCNC(=O)CC[C@H](NC(=O)CC[C@H](NC(=O)COCCOCCNC(=O)COCCOCCNC(=O)CC[C@H](NC(=O)CCCCCCCCCCCCCCC(=O)O)C(=O)O)C(=O)O)C(=O)O)NC(=O)[C@@H](NC(=O)[C@H](Cc1ccccc1)NC(=O)[C@H](CC(=O)O)NC(=O)[C@H](CCC(N)=O)NC(=O)[C@H](C)NC(=O)[C@H](CCCNC(=N)N)NC(=O)[C@H](CCCNC(=N)N)NC(=O)[C@@H](NC(=O)[C@H](CC(=O)O)NC(=O)[C@H](CC(C)C)NC(=O)[C@H](Cc1ccc(O)cc1)NC(=O)[C@H](CCCNC(=N)N)NC(=O)[C@H](CO)NC(=O)[C@H](Cc1ccc(O)cc1)NC(=O)[C@H](CC(=O)O)NC(=O)[C@H](CO)NC(=O)[C@@H](NC(=O)[C@H](Cc1ccccc1)NC(=O)[C@@H](NC(=O)CNC(=O)[C@H](CCC(N)=O)NC(=O)[C@H](CO)NC(=O)[C@@H](N)Cc1c[nH]cn1)[C@@H](C)O)[C@@H](C)O)[C@@H](C)O)C(C)C)C(=O)N[C@@H](CC(C)C)C(=O)N[C@@H](CO)C(=O)N[C@H](C(=O)O)[C@@H](C)O", "note": "[Example 82, N^ε24-[(4S)-4-carboxy-4-[[(4S)-4-carboxy-4-[[2-[2-[2-[[2-[2-[2-[[(4S)-4-carboxy-4-(15-carboxypentadecanoylamino)butanoyl]amino]ethoxy]ethoxy]acetyl]amino]ethoxy]ethoxy]acetyl]amino]butanoyl]amino]butanoyl]-[Arg12,Thr16,Lys24,Leu27,Ser28]-Glucagon] (H-HSQGTFTSDYSRYLDTRRAQDFVK([γGlu-γGlu-AEEA-AEEA-γGlu-C16 diacid])WLLST-OH)", "values": [{"measurement": "EC50", "value": 0.025, "unit": "nM"}]}, {"smiles": "CC[C@H](C)[C@H](NC(=O)[C@H](CC(C)C)NC(=O)[C@H](CC(C)C)NC(=O)[C@H](Cc1c[nH]c2ccccc12)NC(=O)[C@H](CCCCNC(=O)CC[C@H](NC(=O)CC[C@H](NC(=O)COCCOCCNC(=O)COCCOCCNC(=O)CC[C@H](NC(=O)CCCCCCCCCCCCCCCCC(=O)O)C(=O)O)C(=O)O)C(=O)O)NC(=O)[C@@H](NC(=O)[C@H](Cc1ccccc1)NC(=O)[C@H](CC(=O)O)NC(=O)[C@H](CCC(N)=O)NC(=O)[C@H](C)NC(=O)[C@H](CCCNC(=N)N)NC(=O)[C@H](CCCNC(=N)N)NC(=O)[C@H](CC(C)C)NC(=O)[C@H](CC(=O)O)NC(=O)[C@H](CC(C)C)NC(=O)[C@H](Cc1ccc(O)cc1)NC(=O)[C@H](CCCNC(=N)N)NC(=O)[C@H](CO)NC(=O)[C@H](Cc1ccc(O)cc1)NC(=O)[C@H](CC(=O)O)NC(=O)[C@H](CO)NC(=O)[C@@H](NC(=O)[C@H](Cc1ccccc1)NC(=O)[C@@H](NC(=O)CNC(=O)[C@H](CCC(N)=O)NC(=O)[C@H](CO)NC(=O)[C@@H](N)Cc1c[nH]cn1)[C@@H](C)O)[C@@H](C)O)C(C)C)C(=O)N[C@H](C(=O)O)[C@@H](C)O", "note": "[Example 18, N^ε24-[(4S)-4-carboxy-4-[[(4S)-4-carboxy-4-[[2-[2-[2-[[2-[2-[2-[[(4S)-4-carboxy-4-(17-carboxyheptadecanoylamino)butanoyl]amino]ethoxy]ethoxy]acetyl]amino]ethoxy]ethoxy]acetyl]amino]butanoyl]amino]butanoyl]-[Arg^12,Leu^16,Lys^24,Leu^27,Ile^28]-Glucagon] (H-HSQGTFTSDYSRYLDLRRAQDFVK([γGlu-γGlu-AEEA-AEEA-γGlu-C18 diacid])WLLIT-OH)", "values": [{"measurement": "EC50", "value": 1.67, "unit": "nM"}]}, {"smiles": "CC(C)C[C@H](NC(=O)[C@H](Cc1ccc(O)cc1)NC(=O)[C@H](CCCCN)NC(=O)[C@H](CO)NC(=O)[C@H](Cc1ccc(O)cc1)NC(=O)[C@H](CC(=O)O)NC(=O)[C@H](CO)NC(=O)[C@@H](NC(=O)[C@H](Cc1ccccc1)NC(=O)[C@@H](NC(=O)CNC(=O)[C@H](Cc1c[nH]cn1)NC(=O)[C@H](CO)NC(=O)[C@@H](N)Cc1c[nH]cn1)[C@@H](C)O)[C@@H](C)O)C(=O)N[C@@H](CC(=O)O)C(=O)N[C@@H](CO)C(=O)N[C@@H](CCCNC(=N)N)C(=O)N[C@@H](CCCNC(=N)N)C(=O)N[C@@H](C)C(=O)N[C@@H](CCC(N)=O)C(=O)N[C@@H](CC(=O)O)C(=O)N[C@@H](Cc1ccccc1)C(=O)N[C@H](C(=O)N[C@@H](CCCCNC(=O)CC[C@H](NC(=O)CC[C@H](NC(=O)COCCOCCNC(=O)COCCOCCNC(=O)CC[C@H](NC(=O)CCCCCCCCCCCCCCCCC(=O)O)C(=O)O)C(=O)O)C(=O)O)C(=O)N[C@@H](Cc1c[nH]c2ccccc12)C(=O)N[C@@H](CC(C)C)C(=O)N[C@@H](CC(C)C)C(=O)N[C@@H](CC(N)=O)C(=O)N[C@H](C(=O)O)[C@@H](C)O)C(C)C", "note": "[Example 5, N^ε24-[(4S)-4-carboxy-4-[[(4S)-4-carboxy-4-[[2-[2-[2-[[2-[2-[2-[[(4S)-4-carboxy-4-(17-carboxyheptadecanoylamino)butanoyl]amino]ethoxy]ethoxy]acetyl]amino]ethoxy]ethoxy]acetyl]amino]butanoyl]amino]butanoyl]-[His^3,Lys^24,Leu^27]-Glucagon]", "values": [{"measurement": "EC50", "value": 0.105, "unit": "nM"}]}, {"smiles": "CC(C)C[C@H](NC(=O)[C@H](Cc1c[nH]c2ccccc12)NC(=O)[C@H](CCCCNC(=O)CC[C@H](NC(=O)CC[C@H](NC(=O)COCCOCCNC(=O)COCCOCCNC(=O)CC[C@H](NC(=O)CCCCCCCCCCCCCCC(=O)O)C(=O)O)C(=O)O)C(=O)O)NC(=O)[C@@H](NC(=O)[C@H](Cc1ccccc1)NC(=O)[C@H](CC(=O)O)NC(=O)[C@H](CCC(N)=O)NC(=O)[C@H](C)NC(=O)[C@H](CCCNC(=N)N)NC(=O)[C@H](CCCNC(=N)N)NC(=O)[C@@H](NC(=O)[C@H](CC(=O)O)NC(=O)[C@H](CC(C)C)NC(=O)[C@H](Cc1ccc(O)cc1)NC(=O)[C@H](CCCNC(=N)N)NC(=O)[C@H](CO)NC(=O)[C@H](Cc1ccc(O)cc1)NC(=O)[C@H](CC(=O)O)NC(=O)[C@H](CO)NC(=O)[C@@H](NC(=O)[C@H](Cc1ccccc1)NC(=O)[C@@H](NC(=O)CNC(=O)[C@H](CCC(N)=O)NC(=O)[C@H](CO)NC(=O)[C@@H](N)Cc1c[nH]cn1)[C@@H](C)O)[C@@H](C)O)C(C)C)C(C)C)C(=O)N[C@@H](CC(C)C)C(=O)N[C@@H](CO)C(=O)N[C@H](C(=O)O)[C@@H](C)O", "note": "[Example 97, N^ε24-[(4S)-4-carboxy-4-[[(4S)-4-carboxy-4-[[2-[2-[2-[[2-[2-[2-[[(4S)-4-carboxy-4-(15-carboxypentadecanoylamino)butanoyl]amino]ethoxy]ethoxy]acetyl]amino]ethoxy]ethoxy]acetyl]amino]butanoyl]amino]butanoyl]-[Arg12,Val16,Lys24,Leu27,Ser28]-Glucagon] (H-HSQGTFTSDYSRYLDVRRAQDFVK([γGlu-γGlu-AEEA-AEEA-γGlu-C16 diacid])WLLST-OH; N-terminus and C-terminus assumed)", "values": [{"measurement": "EC50", "value": 0.026, "unit": "nM"}]}, {"smiles": "CC(C)C[C@H](NC(=O)[C@H](Cc1c[nH]c2ccccc12)NC(=O)[C@H](CCCCNC(=O)CC[C@H](NC(=O)COCCOCCNC(=O)COCCOCCNC(=O)CC[C@H](NC(=O)CCCCCCCCCCCCCCCCC(=O)O)C(=O)O)C(=O)O)NC(=O)[C@@H](NC(=O)[C@H](Cc1ccccc1)NC(=O)[C@H](CCC(=O)O)NC(=O)[C@H](CCC(N)=O)NC(=O)[C@H](C)NC(=O)[C@H](CCCNC(=N)N)NC(=O)[C@H](CCCNC(=N)N)NC(=O)[C@@H](NC(=O)[C@H](CC(=O)O)NC(=O)[C@H](CC(C)C)NC(=O)[C@H](Cc1ccc(O)cc1)NC(=O)[C@H](CCCCN)NC(=O)[C@H](CO)NC(=O)[C@H](Cc1ccc(O)cc1)NC(=O)[C@H](CC(=O)O)NC(=O)[C@H](CO)NC(=O)[C@@H](NC(=O)[C@H](Cc1ccccc1)NC(=O)[C@@H](NC(=O)CNC(=O)[C@H](CCC(N)=O)NC(=O)[C@H](CO)NC(=O)[C@@H](N)Cc1c[nH]cn1)[C@@H](C)O)[C@@H](C)O)[C@@H](C)O)C(C)C)C(=O)N[C@@H](CC(C)C)C(=O)N[C@@H](CC(N)=O)C(=O)N[C@H](C(=O)O)C(C)C", "note": "[Example 36, N^ε24-[(4S)-4-carboxy-4-[[2-[2-[2-[[2-[2-[2-[[(4S)-4-carboxy-4-(17-carboxyheptadecanoylamino)butanoyl]amino]ethoxy]ethoxy]acetyl]amino]ethoxy]ethoxy]acetyl]amino]butanoyl]-[Thr16,Glu21,Lys24,Leu27,Val29]-Glucagon] (H-HSQGTFTSDYSKYLDTRRAQEFVK([γGlu-AEEA-AEEA-γGlu-C18 diacid])WLLNV-OH)", "values": [{"measurement": "EC50", "value": 0.12, "unit": "nM"}]}, {"smiles": "CC(C)C[C@H](NC(=O)[C@H](CC(=O)O)NC(=O)[C@H](CC(C)C)NC(=O)[C@H](Cc1ccc(O)cc1)NC(=O)[C@H](CCCNC(=N)N)NC(=O)[C@H](CO)NC(=O)[C@H](Cc1ccc(O)cc1)NC(=O)[C@H](CC(=O)O)NC(=O)[C@H](CO)NC(=O)[C@@H](NC(=O)[C@H](Cc1ccccc1)NC(=O)[C@@H](NC(=O)CNC(=O)[C@H](CCC(N)=O)NC(=O)[C@H](CO)NC(=O)[C@@H](N)Cc1c[nH]cn1)[C@@H](C)O)[C@@H](C)O)C(=O)N[C@@H](CCCNC(=N)N)C(=O)N[C@@H](CCCNC(=N)N)C(=O)N[C@@H](C)C(=O)N[C@@H](CCC(N)=O)C(=O)N[C@@H](CCC(=O)O)C(=O)N[C@@H](Cc1ccccc1)C(=O)N[C@H](C(=O)N[C@@H](CCCCNC(=O)CC[C@H](NC(=O)CC[C@H](NC(=O)COCCOCCNC(=O)COCCOCCNC(=O)CC[C@H](NC(=O)CCCCCCCCCCCCCCCCC(=O)O)C(=O)O)C(=O)O)C(=O)O)C(=O)N[C@@H](Cc1c[nH]c2ccccc12)C(=O)N[C@@H](CC(C)C)C(=O)N[C@@H](CC(C)C)C(=O)N[C@@H](CO)C(=O)N[C@H](C(=O)O)[C@@H](C)O)C(C)C", "note": "[Example 46, N^ε24-[(4S)-4-carboxy-4-[[(4S)-4-carboxy-4-[[2-[2-[2-[[2-[2-[2-[[(4S)-4-carboxy-4-(17-carboxyheptadecanoylamino)butanoyl]amino]ethoxy]ethoxy]acetyl]amino]ethoxy]ethoxy]acetyl]amino]butanoyl]amino]butanoyl]-[Arg12,Leu16,Glu21,Lys24,Leu27,Ser28]-Glucagon] (H-HSQGTFTSDYSRYLDLRRAQEFVK([γGlu-γGlu-AEEA-AEEA-γGlu-C18 diacid])WLLST-OH)", "values": [{"measurement": "EC50", "value": 0.095, "unit": "nM"}]}]}
